# Results from patent publication US11840547B1, “Nano-sized 4-Bromo-2-[(9H-purin-6-ylimino)-methyl]-phenol imine Pd(II) complex for superior pharmaceutical applications” (KING FAISAL UNIVERSITY, priority 2023, dated 2023).
# Read-outs that look alike come from different tables or passages of the source.
# Columns and labels:
# E. coli bacteria = experiment: Antimicrobial activity against E. coli (inhibition zone, MIC); assay type: cell-based; settings: in vitro
# Aspergillus flavus fungi = experiment: Antifungal activity against Aspergillus flavus (inhibition zone, MIC); assay type: cell-based; settings: in vitro
# breast cancer cell line [1] = experiment: In vitro anti-cancer activity against breast cancer cell line; assay type: cell-based, human
# breast cancer cell line [2] = experiment: Antioxidant activity; assay type: cell-based; settings: printed as against a breast cancer cell line
# [3] = listed as prepared nano complex
compound,measurement,setting,value
4-Bromo-2-[(9H-purin-6-ylimino)-methyl]-phenol imine Pd(II) complex [prepared complex],MIC,E. coli bacteria; [3],1.00 µg/mL
same,inhibition zone,E. coli bacteria; [3],40 mm
same,MIC,E. coli bacteria; listed as present complex,about 1.0 μg/ml
same,inhibition zone,E. coli bacteria; listed as present complex,about 40 mm
same,MIC,Aspergillus flavus fungi,1.50 µg/mL
same,inhibition zone,Aspergillus flavus fungi,30 mm
same,MIC,Aspergillus flavus fungi; listed as present complex,about 1.50 μg/ml
same,inhibition zone,Aspergillus flavus fungi; listed as present complex,about 30 mm
same,IC50 (anticancer activity),breast cancer cell line [1],2.2 µg/mL
same,IC50 (antioxidant activity),breast cancer cell line [2],7.5 µg/mL
"O=C1O[C@H]([C@@H](O)CO)C(O)=C1O [1-ascorbic acid, reference compound]",IC50 (antioxidant activity),breast cancer cell line [2],45.7 µg/mL
"OC(Cn1cncn1)(Cn1cncn1)c1ccc(F)cc1F [Fluconazol, reference compound]",inhibition zone,Aspergillus flavus fungi,24 mm
same,MIC,Aspergillus flavus fungi; read-out: MIC,2 µg/mL
"CC1COc2c(N3CCN(C)CC3)c(F)cc3c(=O)c(C(=O)O)cn1c23 (stereo not shown) [Ofloxacin, reference compound]",MIC,"E. coli bacteria; Escherichia coli, read-out: MIC",2.5 µg/mL
same,inhibition zone,E. coli bacteria,35 mm
"CC[C@]1(O)C[C@@H]2CN(CCc3c([nH]c4ccccc34)[C@@](C(=O)OC)(c3cc4c(cc3OC)N(C)[C@H]3[C@@](O)(C(=O)OC)[C@H](OC(C)=O)[C@]5(CC)C=CCN6CC[C@]43[C@@H]65)C2)C1 [vinblastine, reference compound]",IC50,"breast cancer cell line [1]; Homo sapiens, read-out: IC50 (anticancer activity)",4.7 µg/mL
